Data as given in patent US11529343B2, “Compositions and methods for identifying and treating dystonia disorders” (DUKE UNIVERSITY, priority 2015, dated 2022).

How the values were obtained:
[1] = tested on: delta-E Torsin1a localization; experiment: Delta-E Torsin1a mislocalization assay (% cells with EGFP puncta, high-content imaging); type: cell-based, human
Description: To limit variation in expression levels associated with random integration or transient expression, single copies of either WT or delta-E human TOR1A cDNAs with N-terminal EGFP fusions were inserted at the FRT site in Flp-In™ T-Rex™ 293 cells (Thermo Fisher Scientific #R780-07) via flippase recombinase-mediated cassette exchange according to the manufacturer's recommended protocols.
The cells were maintained at 37° C./5% CO2. All experiments were performed on cells with fewer than 5 passages.
Torsin1a expression was also controlled by tetracycline induction to avoid selective pressure modifying the cellular phenotypes. […] The mutant phenotype was measured as the percentage of cells with one or more EGFP puncta using automated high-content imaging analysis (see infra).
The image analysis algorithm was developed using the Cellomics ArrayScan V CompartmentAnalysisV2 protocol. Hoechst's nuclear staining (Ch1: excitation 350 nm; emission 461 nm) was used for focusing and for cell identification by nuclear size, shape, and intensity. […] Detected cells were gated according to nuclear area, length-to-width ratio, and perimeter-to-area ratio. For the purpose of analysis, cell bodies were defined by a radius of 10 μm from the outer edge of the defined nucleus. Overlapping cells were automatically segmented according to the Cellomics ArrayScanV CompartmentAnalysisV2 object segmentation feature. EGFP fluorescence (Ch2: excitation 488 nm; emission 509 nm) was used for puncta detection. […] Torsin a puncta were identified using the spot detection feature of the Compartmental AnalysisV2 protocol. The percentage of cells containing one or more puncta was used as the primary metric in this assay.
(§1) In order to test this model directly, the delta-E Torsin1a cell line was treated with compounds targeting the eIF2-alpha signaling pathway (FIG. 2). […] The following day, serial drug dilutions were prepared at 2× final concentration in assay media containing 10 μg/mL tetracycline and 30 μL of the drug/tetracycline mixture was added to the appropriate wells, while control wells received 30 μL of assay media alone or assay media+10 μg/mL tetracycline (final tetracycline concentration for all wells except negative controls: 5 μg/mL). Cells were then incubated at 37° C./5% CO^2 for 48 hours and fixed, permeabilized, Hoechst stained, and imaged as described above. The range of the Torsin1a localization effect was normalized to the percentage of cells with puncta in vehicle-treated delta-E cell line as the maximum and that in WT cell line as the minimum (FIG. 2, panels c-h). Cell count and EGFP-Torsin1a expression were normalized to their respective values in the vehicle-treated delta-E cell line as the maximum. All dose response data are the average of 4 independent experiments per dose. Untreated control data used for normalization are the average of 24 independent experiments.

[2] = tested on: luciferase secretion; experiment: C.Luc. Secretion Assay; type: cell-based; conditions: orthogonal assays
Description: We tested each shRNA for its ability to rescue a previously described defect in luciferase secretion. Chen, P. et al. (2010) Hum. Mol. Genet. 19, 3502-15; Cao, S. et al. (2010) Dis. Model Mech. 3, 386-96; Barrows, N. J., et al., (2010) J. Biomol. Screen. 15, 735-47.) DYT1 patient data were obtained from 4 independent patient-derived lines and WT data (black bar) from 3 normal healthy control lines. Each line was tested in 5 independent experiments that included 4 technical replicates each (with the exception of SCD data from 3 independent experiments).
(Cao, S. et al. (2010) Dis. Model. Mech. 3, 386-96.) Subsequent testing of additional HIV protease inhibitors supported the activity of this class of compounds and generated favorable structure-activity relationship (SAR) data from which to design improved compounds (Tables 5 and 6). The results with a subset of compounds were also observed in a Luciferase secretion assay (Tables 5 and 6).

[3] = tested on: pEIF2-alpha; experiment: Western blot, phosphorylation of EIF2-alpha in EGFP-ΔE Torsin1a expression assay cell line; type: cell-based, human; conditions: increasing concentration
Description: (§2) Cells were harvested in RIPA buffer [150 mM NaCl/50 mM NaH2PO4/2 mM EDTA/1% Triton X-100/0.5% SDS/0.5% deoxycholic acid/50 mM NaF/10 mM Na4P2O7/1 mM Na3VO4/1× phosphatase inhibitor cocktail (Sigma #P5726)/1× cOmplete Mini EDTA-free protease inhibitor cocktail (Roche #04693159001)]. Total protein concentrations were assessed by BCA assay (Thermo Fisher Scientific #23225). Proteins were resolved on 4-15% TGX gels (Bio-Rad #5671085), transferred to nitrocellulose membrane, blocked in TBS-T+5% non-fat dry milk, and probed as indicated. (Primary antibodies employed in the examples of the disclosure are presented in Table 4.) ATF4 expression was normalized to […] expression. N=3 independent control cells lines and 4 independent DYT1 cell lines, 3 replicates each.
(§3) Western blot analyses were conducted to determine the effect of Lopinavir on ATF4, CreP, pEIF2-alpha, and β-actin abundance in EGFP-ΔE Torsin1a expression assay cell lines. […] This down regulation of CreP is in keeping with the HIV protease inhibitor mediated CreP regulation. (See De Gassart et al. PNAS 2015.)

[4] = tested on: Flp-In T-REx 293 cells inducibly expressing delta-E Torsin1a; experiment: Cytotoxicity (cell count, cellular morphology) in the Torsin1a assay cell line; type: cell-based, human
Description: as §1
Efficacy is calculated as the magnitude of the pathology correction relative to the mutant Torsin1a pathology. For example an efficacy=−100% would be equivalent to the WT TorsinA phenotype, and 0% would be equivalent to the Mutant TorsinA phenotype. CCv2 refers to the dose response Curve Class annotation, and AC refers to Active Concentration.

[5] = tested on: ATF4; experiment: Western blot, ATF4 abundance in EGFP-ΔE Torsin1a expression assay cell line; type: cell-based, human; conditions: increasing concentration
Description: as §2, §3

[6] = tested on: CreP; experiment: Western blot, CreP abundance in EGFP-ΔE Torsin1a expression assay cell line; type: cell-based, human; conditions: increasing concentration
Description: as §2, §3

Cc1cccc(C)c1OCC(=O)N[C@@H](Cc1ccccc1)[C@@H](O)C[C@H](Cc1ccccc1)NC(=O)[C@H](C(C)C)N1CCCNC1=O [Lopinavir]
Emax ([1]; Homo sapiens, delta-E Torsin1a assay cell line, read-out: ΔE TorsinA Mislocalization Assay Localization Max Efficacy): 70%
effect on delta-E Torsin1a localization (cells with puncta), in words ([1]; dose response, delta-E cell line): corrected TorsinA localization in a dose-dependent fashion
effect on secretory deficits, in words [2]: corrected secretory deficits
phosphorylation of EIF2-alpha [3]: increases phosphorylation of EIF2-alpha
Cytotox Efficacy [4]: −69.87%
Cytotox Max Resp [4]: −55.19%
Cytotox CC-v2 (dose response Curve Class) ([4]; curve class per Inglese et al. 2006): −3
ATF4 abundance [5]: increases phosphorylation of EIF2-alpha and ATF4 abundance in a dose dependent manner
steady state levels of CreP [6]: down-regulation of steady state levels
steady state levels of CreP ([6]; listed as lopinavir): decreases CReP abundance
